Test results reported in US20200282009A1, “METHODS OF TREATING DISEASES ASSOCIATED WITH VASCULAR SMOOTH MUSCLE CELL PROLIFERATION” (BioLineRx Ltd., priority 2017, published 2020).
[ ]: non-standard residue; d: D form. The star is where a group is joined. Benzoyl(4-F) = O=C(c1ccc(F)cc1)*; Cit = NC(=O)NCCC[C@H](N)C(=O)O

What was measured:
SK-N-BE(2)-CXCR4 cells = experiment: Cell survival assay (PI staining, FACS); format: cell-based, human; conditions: SK-N-BE(2)-CXCR4 vs native cell line; 0, 10 and 20 μM, 24 hours
Method: A total of 1×10^5 cells/mL were cultured in 24-well plates with […] RPMI 1640 medium supplemented with 10% FCS. 24 hours later, the medium was changed to RPMI 1640 supplemented with either 1% FCS, with BL-8040 or AMD3100 or ABT199. Then 24 hours later, the cells were harvested, washed, and stained with PI (Sigma). The number of live cells was counted and analyzed using FACS analysis.
In order to stably overexpress CXCR4, SK-N-BE(2) cells were transduced with the lentiviral bicistronic vector harboring a CXCR4 expression cassette. This was done using a three-plasmid system: pHR′-CMVCXCR4-IRES-GFP-WPRE; envelope coding plasmid VSV-G and a packaging construct CMVDR8.91 according to previously published protocol (23). For transduction of SK-N-BE(2) cells, 1 ml of viral supernatant was used, which is equivalent to an m.o.i. of ˜9.

[1] = system: CXCR4-expressing malignancies; conditions: multiple myeloma, AML, CML, non-small cell lung cancer, metastatic breast cancer; cited from earlier work
[2] = system: miR-15a, miR-16-1, BCL-2, CCND1, c-myc in SK-N-BE(2) cells; experiment: qPCR of treated cells in-vitro; format: cell-based, human; conditions: 20 μM, 24 hours
Method: (§1) Total RNA from various cell lines and mouse tissues was isolated using Trizol reagent (Invitrogen) according to the manufacture's protocol, followed by DNaseI treatment using the DNaseI Kit where needed (Ambion). The concentrations were measured by Nanodrop (ND spectrophotometer) and the integrity was analyzed by gel electrophoreses on 1% agarose gel.
(§2) cDNA was synthesized from 0.5-1 μg total RNA using the Quanta Biosciences qScript™ cDNA Synthesis Kit (95047-100) for mRNA analysis, and using the qScript™ microRNA cDNA Synthesis Kit (95107-100) for miRNAs analysis. Quantiative PCR (qPCR) of miRNAs and mRNA was performed using the CFX384, C1000 touch thermal cycler (Bio-Rad) and a SYBR Green PCR Kit: Quanta Cat. #84018 and #84071, respectively. The fold expression and statistical significance were calculated using the 2-ΔΔ Ct method. All experiments were performed in triplicate.

[3] = system: miR-15a, miR-16-1, BCL-2, CCND1, c-myc in Shy-SY5Y cells; experiment: qPCR of treated cells in-vitro; format: cell-based, human; conditions: 20 μM, 24 hours
Method: as §1, §2

[4] = system: BCL-2, cycD1, pERK in SK-N-BE(2) cells; experiment: Western blot analysis of treated cells; format: cell-based, human; conditions: 20 μM, 24 hours
Method: SK-N-BE(2) cells were seeded into a 12-well plate at 2×10^5/1 ml of medium per well. The cells were incubated for 48 hours and supernatants were collected. For whole cells: tumor samples and cells were lysed by the addition of lysis buffer containing 50 mM Tris-HCl PH 7.6, 150 mM NaCl, 5 mM EDTA pH 8, 0.5% NP40 and protease inhibitor cocktail (Roche Diagnostics). Lysate was incubated with buffer for 15-20 minutes and then centrifuges at 14,000 rpm, 15 min, at 4° C. Protein amounts were determined by Bradford assay (Bio-Rad).
Protein extracts were equally loaded onto 10% SDS-polyacrylamide gel, electrophorized and transferred onto a polyvinylidenedifluoride (PVDF) membrane (Bio-Rad Laboratories). Then, membranes were blocked and incubated with primary specific antibody O.N. at 4° C. For BCL-2 mouse monoclonal (Abcam). For cycD1 rabbit monoclonal (Thermo). For pERK1/2 rabbit monoclonal (Cell signaling). For β-Actin mouse monoclonal (MP biomedicals). After the washing procedure (3 times, 10 min in washing solution), the membrane was incubated with a secondary immunopure HRP-conjugated antibody, anti-mouse or anti rabbit (Envision; Dako) (1/10,000), washed (5 times, 6 min) and detected with the EZ-ECL kit (Biological Industries). Photon emission was identified by ChemiDoc MP imaging system (Bio-Rad). Intensities of protein bands were quantified by computerized densitometry using Image lab software (Bio-Rad).

miR-15a, DLEU2 = experiment: Gene expression array of xenograft tumors; format: in vivo, NSG mice; conditions: treated vs un-treated tumors
Excerpt: RNA was isolated from tumors and subjected to gene expression profiling using GeneChip human Gene 1.0 ST Array (Affymetrix). The gene expression values were extracted using the Partek Genomics Suite 6.6 software and, after thresholding and filtering procedures, were submitted to fold change and cluster analyses (Gene Expression Omnibus [GEO] GSE94426).
Human SK-N-BE(2) cells were orthotopically injected into the left adrenal gland of 6-8 weeks old NSG mice. A 27-gauge needle was introduced through the left adrenal fat pad and 5×10∧5 cells/20 μl PBS were inoculated to the adrenal gland. NSG mice were maintained under defined flora conditions at the Hebrew University Pathogen-Free Animal Facility. Tumor growth and volume were monitored bi-weekly by using T2-weighted MRI until tumors reached the ethical limit volume and mice were randomized to drug-treated or control mice. Mice in the treated group were subjected to 2 treatment protocols. In the first treatment protocol BL-8040 (400 μg) was injected daily, starting three days following inoculation, and was continued for 35 days. In the second treatment protocol mice were monitored for 21 days. As of day 7, mice were treated with a daily injection of BL-8040 (400 μg) for 14 consecutive days.

4F-benzoyl-Arg-Arg-Nal-Cys-Tyr-Cit-Lys-DLys-Pro-Tyr-Arg-Cit-Cys-Arg-NH2 ({Benzoyl(4-F)}-RR[Nal]CY[Cit]K[dK]PYR[Cit]CR-NH2; not fully specified; printed as 4F-benzoyl-Arg-Arg-Nal-Cys-Tyr-Cit-Lys-DLys-Pro-Tyr-Arg-Cit-Cys-Arg-NH2; cysteine pairing not given here) [BL-8040]
sensitivity to BL-8040 treatment in-vitro (viability) (SK-N-BE(2)-CXCR4 cells): increased sensitivity
effects on CXCR4-expressing malignancies [1]: toxic effects
BCL-2 mRNA (qPCR) [2]: reduced
CCND1 mRNA (qPCR) [2]: reduced only in the Shy-SY5Y cells
c-myc mRNA (qPCR) [2]: reduced significantly
miR-15a level (qPCR) [2]: significant increase
miR-16-1 level (qPCR) [2]: not miR-16-1
BCL-2 mRNA (qPCR) [3]: reduced
CCND1 mRNA (qPCR) [3]: reduced only in the Shy-SY5Y cells
c-myc mRNA (qPCR) [3]: reduced significantly
miR-15a level (qPCR) [3]: significant increase
miR-16-1 level (qPCR) [3]: not miR-16-1
BCL-2 protein (western blot) [4]: reduction
ERK phosphorylation (western blot) [4]: decreased ERK phosphorylation
cycD1 protein (western blot) [4]: reduction
expression of miR-15a and its parent gene DLEU2 (gene chip array) (miR-15a, DLEU2): increased expression
